Key:
Assay in all cases: relative viability (nuclei count vs DMSO), 5 days (fraction); higher = more cells survive
BEN = tested on: BEN
Outline: (§1)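 Relative viability is defined as nuclei in treated wells over nuclei in vehicle wells. Duplicate plates were run and medians reported. Lung cancer cell lines in 1536-well plates were dosed by pin tool one day after seeding, with one drug or with a fixed anchor-drug dose plus five library-drug doses (not always all listed) in √10 steps, and nuclei were counted after 5 days.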

EKVX = tested on: EKVX
Outline: as §1

HARA = tested on: HARA
Outline: as §1

HCC-366 = tested on: HCC-366
Outline: as §1

HCC-44 = tested on: HCC-44
Outline: as §1

HCC-827 = tested on: HCC-827
Outline: as §1

LC-2-ad = tested on: LC-2-ad
Outline: as §1

LOU-NH91 = tested on: LOU-NH91
Outline: as §1

NCI-H1355 = tested on: NCI-H1355
Outline: as §1

NCI-H1395 = tested on: NCI-H1395
Outline: as §1

NCI-H1437 = tested on: NCI-H1437
Outline: as §1

NCI-H1734 = tested on: NCI-H1734
Outline: as §1

NCI-H1792 = tested on: NCI-H1792
Outline: as §1

NCI-H2009 = tested on: NCI-H2009
Outline: as §1

NCI-H2087 = tested on: NCI-H2087
Outline: as §1

NCI-H2170 = tested on: NCI-H2170
Outline: as §1

NCI-H2228 = tested on: NCI-H2228
Outline: as §1

NCI-H2405 = tested on: NCI-H2405
Outline: as §1

NCI-H596 = tested on: NCI-H596
Outline: as §1

NCI-H647 = tested on: NCI-H647
Outline: as §1

SK-LU-1 = tested on: SK-LU-1
Outline: as §1

SK-MES-1 = tested on: SK-MES-1
Outline: as §1

Compound: C[C@@H]1CN(CC(=O)Nc2ccc3c(c2)Cc2cccc(-c4cc(=O)cc(N5CCOCC5)o4)c2S3)C[C@H](C)O1 + CC1(C)CCC(c2ccc(Cl)cc2)=C(CN2CCN(c3ccc(C(=O)NS(=O)(=O)c4ccc(N[C@H](CCN5CCOCC5)CSc5ccccc5)c(S(=O)(=O)C(F)(F)F)c4)cc3)CC2)C1 [Navitoclax] (partner 0.5 µM)
- relative viability (BEN; first compound 0.04 µM): 0.0641
- relative viability (BEN; first compound 0.1265 µM): 0.0514
- relative viability (BEN; first compound 0.4 µM): 0.0961
- relative viability (BEN; first compound 4 µM): 0.0488
- relative viability (EKVX; first compound 0.04 µM): 0.899
- relative viability (EKVX; first compound 0.1265 µM): 0.894
- relative viability (EKVX; first compound 0.4 µM): 0.862
- relative viability (EKVX; first compound 4 µM): 0.812
- relative viability (HARA; first compound 0.04 µM): 1.2
- relative viability (HARA; first compound 0.1265 µM): 1.12
- relative viability (HARA; first compound 0.4 µM): 1.21
- relative viability (HARA; first compound 4 µM): 1.14
- relative viability (HCC-366; first compound 0.04 µM): 1.04
- relative viability (HCC-366; first compound 0.1265 µM): 1.08
- relative viability (HCC-366; first compound 0.4 µM): 1.15
- relative viability (HCC-366; first compound 4 µM): 0.944
- relative viability (HCC-44; first compound 0.04 µM): 0.987
- relative viability (HCC-44; first compound 0.1265 µM): 0.894
- relative viability (HCC-44; first compound 0.4 µM): 0.835
- relative viability (HCC-44; first compound 4 µM): 0.943
- relative viability (HCC-827; first compound 0.04 µM): 0.931
- relative viability (HCC-827; first compound 0.1265 µM): 0.944
- relative viability (HCC-827; first compound 0.4 µM): 1.04
- relative viability (HCC-827; first compound 4 µM): 1.03
- relative viability (LC-2-ad; first compound 0.04 µM): 0.587
- relative viability (LC-2-ad; first compound 0.1265 µM): 0.46
- relative viability (LC-2-ad; first compound 0.4 µM): 0.336
- relative viability (LC-2-ad; first compound 4 µM): 0.29
- relative viability (LOU-NH91; first compound 0.04 µM): 0.701
- relative viability (LOU-NH91; first compound 0.1265 µM): 0.617
- relative viability (LOU-NH91; first compound 0.4 µM): 0.702
- relative viability (LOU-NH91; first compound 4 µM): 0.66
- relative viability (NCI-H1355; first compound 0.04 µM): 0.978
- relative viability (NCI-H1355; first compound 0.1265 µM): 0.894
- relative viability (NCI-H1355; first compound 0.4 µM): 0.856
- relative viability (NCI-H1355; first compound 4 µM): 0.899
- relative viability (NCI-H1395; first compound 0.04 µM): 1.16
- relative viability (NCI-H1395; first compound 0.1265 µM): 1.26
- relative viability (NCI-H1395; first compound 0.4 µM): 1.35
- relative viability (NCI-H1395; first compound 4 µM): 1.16
- relative viability (NCI-H1437; first compound 0.04 µM): 1.14
- relative viability (NCI-H1437; first compound 0.1265 µM): 1.1
- relative viability (NCI-H1437; first compound 0.4 µM): 1.13
- relative viability (NCI-H1437; first compound 4 µM): 0.882
- relative viability (NCI-H1734; first compound 0.04 µM): 0.783
- relative viability (NCI-H1734; first compound 0.1265 µM): 0.886
- relative viability (NCI-H1734; first compound 0.4 µM): 0.808
- relative viability (NCI-H1734; first compound 4 µM): 0.923
- relative viability (NCI-H1792; first compound 0.04 µM): 0.593
- relative viability (NCI-H1792; first compound 0.1265 µM): 0.597
- relative viability (NCI-H1792; first compound 0.4 µM): 0.632
- relative viability (NCI-H1792; first compound 4 µM): 0.597
- relative viability (NCI-H2009; first compound 0.04 µM): 1.17
- relative viability (NCI-H2009; first compound 0.1265 µM): 1.1
- relative viability (NCI-H2009; first compound 0.4 µM): 1.15
- relative viability (NCI-H2009; first compound 4 µM): 0.915
- relative viability (NCI-H2087; first compound 0.04 µM): 0.971
- relative viability (NCI-H2087; first compound 0.1265 µM): 1.1
- relative viability (NCI-H2087; first compound 0.4 µM): 0.909
- relative viability (NCI-H2087; first compound 4 µM): 0.923
- relative viability (NCI-H2170; first compound 0.1265 µM): 0.617
- relative viability (NCI-H2170; first compound 0.4 µM): 0.471
- relative viability (NCI-H2170; first compound 4 µM): 0.475
- relative viability (NCI-H2228; first compound 0.04 µM): 1.02
- relative viability (NCI-H2228; first compound 0.1265 µM): 1.11
- relative viability (NCI-H2228; first compound 0.4 µM): 0.639
- relative viability (NCI-H2228; first compound 4 µM): 0.753
- relative viability (NCI-H2405; first compound 0.04 µM): 1.02
- relative viability (NCI-H2405; first compound 0.1265 µM): 1.1
- relative viability (NCI-H2405; first compound 0.4 µM): 0.866
- relative viability (NCI-H2405; first compound 4 µM): 0.872
- relative viability (NCI-H596; first compound 0.04 µM): 0.958
- relative viability (NCI-H596; first compound 0.1265 µM): 0.994
- relative viability (NCI-H596; first compound 0.4 µM): 0.934
- relative viability (NCI-H596; first compound 4 µM): 0.992
- relative viability (NCI-H647; first compound 0.04 µM): 0.989
- relative viability (NCI-H647; first compound 0.1265 µM): 1.09
- relative viability (NCI-H647; first compound 0.4 µM): 1.09
- relative viability (NCI-H647; first compound 4 µM): 0.591
- relative viability (SK-LU-1; first compound 0.04 µM): 0.761
- relative viability (SK-LU-1; first compound 0.1265 µM): 0.969
- relative viability (SK-LU-1; first compound 0.4 µM): 0.956
- relative viability (SK-LU-1; first compound 4 µM): 0.637
- relative viability (SK-MES-1; first compound 0.04 µM): 1.37
- relative viability (SK-MES-1; first compound 0.1265 µM): 1.16
- relative viability (SK-MES-1; first compound 0.4 µM): 1.1
- relative viability (SK-MES-1; first compound 4 µM): 1.1

Compound: CC(C)Oc1cc(Nc2nc(N[C@@H](C)c3ccc(F)cn3)ncc2Cl)n[nH]1 [AZ23] + CC1(C)CCC(c2ccc(Cl)cc2)=C(CN2CCN(c3ccc(C(=O)NS(=O)(=O)c4ccc(N[C@H](CCN5CCOCC5)CSc5ccccc5)c(S(=O)(=O)C(F)(F)F)c4)cc3)CC2)C1 [Navitoclax] (partner 0.5 µM)
- relative viability (BEN; first compound 0.01 µM): 0.0781
- relative viability (BEN; first compound 0.03162 µM): 0.0578
- relative viability (BEN; first compound 0.3162 µM): 0.0639
- relative viability (EKVX; first compound 0.01 µM): 1.12
- relative viability (EKVX; first compound 0.03162 µM): 1.29
- relative viability (EKVX; first compound 0.3162 µM): 1.02
- relative viability (HARA; first compound 0.01 µM): 0.973
- relative viability (HARA; first compound 0.03162 µM): 1.16
- relative viability (HARA; first compound 0.3162 µM): 1.16
- relative viability (HCC-366; first compound 0.01 µM): 1.3
- relative viability (HCC-366; first compound 0.03162 µM): 0.998
- relative viability (HCC-366; first compound 0.3162 µM): 0.883
- relative viability (HCC-44; first compound 0.01 µM): 1.31
- relative viability (HCC-44; first compound 0.03162 µM): 1
- relative viability (HCC-44; first compound 0.3162 µM): 0.927
- relative viability (HCC-827; first compound 0.01 µM): 1
- relative viability (HCC-827; first compound 0.03162 µM): 1.04
- relative viability (HCC-827; first compound 0.3162 µM): 0.991
- relative viability (LC-2-ad; first compound 0.01 µM): 0.386
- relative viability (LC-2-ad; first compound 0.03162 µM): 0.474
- relative viability (LC-2-ad; first compound 0.3162 µM): 0.415
- relative viability (LOU-NH91; first compound 0.01 µM): 0.619
- relative viability (LOU-NH91; first compound 0.03162 µM): 0.744
- relative viability (LOU-NH91; first compound 0.3162 µM): 0.746
- relative viability (NCI-H1355; first compound 0.01 µM): 0.999
- relative viability (NCI-H1355; first compound 0.03162 µM): 0.896
- relative viability (NCI-H1355; first compound 0.3162 µM): 0.833
- relative viability (NCI-H1395; first compound 0.03162 µM): 1.12
- relative viability (NCI-H1395; first compound 0.3162 µM): 1.21
- relative viability (NCI-H1437; first compound 0.01 µM): 1.33
- relative viability (NCI-H1437; first compound 0.03162 µM): 1.29
- relative viability (NCI-H1437; first compound 0.3162 µM): 1.13
- relative viability (NCI-H1734; first compound 0.01 µM): 0.905
- relative viability (NCI-H1734; first compound 0.03162 µM): 0.973
- relative viability (NCI-H1734; first compound 0.3162 µM): 0.721
- relative viability (NCI-H1792; first compound 0.01 µM): 0.763
- relative viability (NCI-H1792; first compound 0.03162 µM): 0.858
- relative viability (NCI-H1792; first compound 0.3162 µM): 0.693
- relative viability (NCI-H2009; first compound 0.01 µM): 1.16
- relative viability (NCI-H2009; first compound 0.03162 µM): 1.18
- relative viability (NCI-H2009; first compound 0.3162 µM): 1.19
- relative viability (NCI-H2087; first compound 0.01 µM): 1.14
- relative viability (NCI-H2087; first compound 0.03162 µM): 1.12
- relative viability (NCI-H2087; first compound 0.3162 µM): 0.914
- relative viability (NCI-H2170; first compound 0.01 µM): 0.59
- relative viability (NCI-H2170; first compound 0.03162 µM): 0.687
- relative viability (NCI-H2170; first compound 0.3162 µM): 0.589
- relative viability (NCI-H2228; first compound 0.01 µM): 0.848
- relative viability (NCI-H2228; first compound 0.03162 µM): 0.963
- relative viability (NCI-H2228; first compound 0.3162 µM): 0.709
- relative viability (NCI-H2405; first compound 0.01 µM): 0.8
- relative viability (NCI-H2405; first compound 0.03162 µM): 0.915
- relative viability (NCI-H2405; first compound 0.3162 µM): 0.781
- relative viability (NCI-H596; first compound 0.01 µM): 0.854
- relative viability (NCI-H596; first compound 0.03162 µM): 1.04
- relative viability (NCI-H596; first compound 0.3162 µM): 0.747
- relative viability (NCI-H647; first compound 0.01 µM): 1.46
- relative viability (NCI-H647; first compound 0.03162 µM): 1.51
- relative viability (NCI-H647; first compound 0.3162 µM): 1.24
- relative viability (SK-LU-1; first compound 0.01 µM): 0.457
- relative viability (SK-LU-1; first compound 0.03162 µM): 1.38
- relative viability (SK-LU-1; first compound 0.3162 µM): 0.858
- relative viability (SK-MES-1; first compound 0.01 µM): 1.4
- relative viability (SK-MES-1; first compound 0.03162 µM): 1.42
- relative viability (SK-MES-1; first compound 0.3162 µM): 1.33

Reference: the supplement of paper PMC10307832
